What was measured:
[1] = tested on: Arabidopsis thaliana transformed with Hydrilla PDS constructs; test: Herbicide resistance of transformed Arabidopsis T1 seedlings; format: in vivo
Description: Binary vectors for pds expression in plants included the 1-323 by upstream of the beginning of the putative mature protien, which is assumed to encode for chloroplast signal peptide/s. pHy4ATG5 was mutagenized at the amino acid 304 of pds to replace Arginine by Histidine, Threonine, Serine, or Cysteine, using the QuickChange™ Site-Directed Mutagenesis Kit of Stratagene (La Jolla, Calif.) and the same mutagenesis primers used for p3ORF-ATG indicated in the previous section. The resulting plasmids in this case were pHy4His, pHy4Thr, pHy4Ser and pHy4Cys. A 1.8 kb fragment between the TOPO4 SpeI site and the pds SspI site containing the pds gene was cloned into pCAMBIA1303 (CAMBIA, Canberra, Australia) SpeI-Pm1I sites (SspI and PmlI are compatible) replacing the 2.5 kb gus:mgfp; the resulting plasmid was designated pPDATG1303. The same strategy was used for each of the clones containing amino acid changes, generating plasmids pPDHIS1303, pPDTHR1303, pPDSER1303 and pPDCYS1303. The selectable marker in these constructs is the hygromycin phosphotransferase gene (hptll) for resistance to hygromycin in plants.
Arabidopsis thaliana ecotype Columbia (Col-0) was transformed with Agrobacterium using the floral dip method (Clough, S. J. and Bent, A. F. (1998) Floral dip: a simplified method for Agrobacterium-mediated transformation of Arabidopsis thaliana. The Plant Journal 16(6):735-743). Plants were grown at 21° C. with 16 h/8 h day and night until flowering and continuous light after inoculation (plants inoculated with Agrobacterium were denominated T0 plants). Selection of T1 (seeds produced by T0 plants) seedlings was performed on Petri plates with half-strength Murashige and Skoog (MS) medium (Murashige, T. and Skoog, F. (1962) A revised medium for rapid grOwth and bioassays with tobacco tissue cultures. Physiologia plantarum 15:473-497) supplemented with 1% sucrose, 0.2% phytagel and 300 μg/ml cefotaxime. […]
DNA was extracted according to Dilworth and Frey (2000)foreign genes detected by PCR. […]

[2] = tested on: Synechocystis PDS with mutation corresponding to Leu^542→Arg; details: prior work; cited from earlier work
[3] = molecular target: Hydrilla PDS Arg^304 Arginine (wildtype) (Hydrilla verticillata, UniProt Q66PY0); test: Fluridone enzyme inhibition assay, non-His-tagged PDS (Table 1); format: biochemical; details: Arginine at 304 (reference)
Sequence of Hydrilla PDS Arg^304 Arginine (wildtype) (Q66PY0 1-580): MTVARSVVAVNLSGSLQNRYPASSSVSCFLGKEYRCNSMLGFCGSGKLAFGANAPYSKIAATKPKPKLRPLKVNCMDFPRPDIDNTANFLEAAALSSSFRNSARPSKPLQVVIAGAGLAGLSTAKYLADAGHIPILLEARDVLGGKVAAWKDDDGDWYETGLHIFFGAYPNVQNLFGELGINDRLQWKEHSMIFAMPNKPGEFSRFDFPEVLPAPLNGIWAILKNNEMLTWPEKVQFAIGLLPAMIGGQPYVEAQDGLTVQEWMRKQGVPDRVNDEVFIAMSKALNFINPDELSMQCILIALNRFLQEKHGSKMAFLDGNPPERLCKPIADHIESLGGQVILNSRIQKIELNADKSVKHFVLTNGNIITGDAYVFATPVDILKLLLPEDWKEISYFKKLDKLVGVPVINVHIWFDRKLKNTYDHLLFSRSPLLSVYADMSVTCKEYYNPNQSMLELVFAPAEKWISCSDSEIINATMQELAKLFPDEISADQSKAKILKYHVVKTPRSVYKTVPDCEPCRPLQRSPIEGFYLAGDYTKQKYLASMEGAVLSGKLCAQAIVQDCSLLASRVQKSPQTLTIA
Protocol: The expression constructs in Table 1 were derived from an original clone of the susceptible PDS gene from Hydrilla and then the Arg^304 was mutated to the listed amino acid. Expression was under the control of the lac promoter […] with the initiation codon of the LacZalpha-ccdB gene in the pCR4-TOPO vector (Invitrogen Inc., CA, Cat. #K4575-01).
All mutagenesis was performed, unless stated otherwise, using the TOPO-vector containing the wildtype (H4) PDS-sequence, which was extracted from an overnight culture with the Qiagen Plasmid Prep Kit as described above. The amount of the extracted plasmid was diluted to 10 ng/μl and used as template in a mutagenesis-procedure using the QuikChange Site-directed Mutagenesis Kit (Stratagene, Calif., #200518). The design of the mutagenesis-primers was conducted according to the manufacturers protocol to enable the specific change of Arg^304-codon to code for the desired amino acid. Primers (purchased from MWG-Biotech) and their introduced amino acid change are listed below with the changed codon underlined:
The reactions were performed according to the manufacturers protocol. […] Sequences were assembled and analyzed using Seqman. […]
Phytoene desaturase activity and its inhibition by herbicides was determined using an in vitro system using components derived from the in vivo production of phytoene and phytoene desaturase proteins. […]

## CNc1cnn(-c2cccc(C(F)(F)F)c2)c(=O)c1Cl [Norflurazon]
[1]; construct pPDATG1303
  confirmed transformed plants resistant to the herbicide: 1
[1]; construct pPDSER1303
  confirmed transformed plants resistant to the herbicide: 3
[1]; construct pPDTHR1303
  confirmed transformed plants resistant to the herbicide: 1

## Fluridone
[2]
  resistance provided by the mutation: failed to provide resistance
[3]
  R/S: 1

— patent US20110098180A1, “Herbicide-Resistant Plants, And Polynucleotides And Methods For Providing Same” (United States Department of Agriculture, priority 2002, published 2011)
